# Laboratory results from patent US10179775B2, “Cyclooctenes for bioorthogonol reactions” (The General Hospital Corporation, priority 2014, dated 2019).
# “Also recorded” adds a separate entry of the source.
# What was measured:
# Type in all cases: physicochemical
# [1] = Chemical stability in the presence of cysteine by 1H NMR; conditions: 37° C.; for chemical stability / isomerization, result in words: 48 mM cysteine, 20 mM cyclooctene (s-TCO 10 mM), D2O:DMSO-d6 10:1 v/v, 0-14 h; for trans-isomer still present after 6 hours / Icis / Itrans: cysteine
# Procedure: (§1) The chemical stability of the compounds of Examples 1-3 was also investigated in the presence of thiols (cysteine and mercaptoethanol) by NMR in D2O:DMSO-d6 10:1 v/v at 37° C.
# (§2) The solutions were prepared by the dilution of a stock solution prepared in DMSO-d6. An end concentration of 20 mM of the cyclooctenes was used except for the s-TCO, which was used in 10 mM end concentration due to poorer solubility. A 20 mM solution could not be prepared by dilution with D2O from DMSO-d6 stock solution without the precipitation of s-TCO. Nucleophiles mercaptoethanol and cysteine were used in 48 mM end concentration. Cysteine precipitated very soon from the solution. In all cases reactions were followed by ^1H NMR.
# (§3) Measurements were taken in the following intervals: mercaptoethanol: 0 h, 2 h, 11 h, 17 h and 25 h; cysteine: 0 h, 6 h and 14 h; s-TCO without nucleophile at room temperature: 1 h, 7 h and 14 h.
# (§4) In each case the ratio of the integrals of the cis-double bond to the sum of the integrals of the cis- and trans-double bonds was calculate.
# [2] = Spontaneous isomerization in D2O or D2O:DMSO-d6 without nucleophile by 1H NMR; conditions: for isomerization or degradation on storage in D2O, result in words: stored in D2O, 1H NMR
# Procedure: Bulk samples of the compounds described above in Examples 1-3 were stored at −20° C. for six months. […] The spontaneous isomerization took almost 5 days at 37° C. and more than 12 days at room temperature. […] With 22, a similar degree of isomerization was observed only after 63 hours at room temperature in D2O.
# as §3, §4
# [3] = Chemical stability in the presence of mercaptoethanol by 1H NMR; design: Icis / Itrans: unit not given here; conditions: for Icis / Itrans / Itrans/(Icis + Itrans) / chemical stability (change by NMR) after 16 hours: mercaptoethanol; for Icis / Itrans / Itrans/(Icis + Itrans) / chemical stability / isomerization, result in words: 37° C.; for chemical stability / isomerization, result in words: 48 mM mercaptoethanol, 20 mM cyclooctene (s-TCO 10 mM), D2O:DMSO-d6 10:1 v/v, 0-25 h; for chemical stability (change by NMR) after 16 hours: D2O:DMSO-d6 10:1 v/v at 37° C.
# Procedure: as §1, §2
# Measurements were taken in the following intervals: mercaptoethanol: 0 h, 2 h, 11 h, 17 h and 25 h; cysteine: 0 h, 6 h and 14 h; s-TCO without nucleophile at room temperature: 1 h, 7 h and 14 h. […]
# [4] = Tetrazine kinetics with cyclooctenes (stopped-flow spectrophotometry); conditions: for k2 second rate constant / second order rate constant k2: reaction with benzylamino tetrazine in PBS at 37° C.
# Procedure: Kinetic measurements were performed with benzylamino tetrazine and excessive amounts of cyclooctenes, using an Applied Photophysics Stopped-Flow spectrophotometer. Stock solutions of reactants in DMSO were diluted in PBS pH 7.4 to a final concentration of 1 vol % DMSO. Solutions of these reactants were loaded into the individual chambers of the instrument and equilibrated to 37° C. for 10 min. The concentration of benzylamino tetrazine after the samples were mixed by the spectrometer in a 1:1 v/v ratio was 50, 75 or 150 μM depending on the cyclooctene used. The decrease of the benzylamino tetrazine absorbance measured at 515 nm was monitored at regular intervals between 0.075 s and 10 s depending on the cyclooctene used. For trials shorter than […] (TCO-OH, OX-TCO and 3PEGMe-TCO) 1000 data points were collected and for trials longer than 1 s (EG-TCO and DO-TCO) 10000 data points were collected.
# The kobs, (s^−1) values were calculated using the Prism 6 software package and the results of 6 runs were averaged for each cyclooctene concentration. […] The average kobs, values were then plotted against the concentration of cyclooctenes to yield the second order rate constant k2=(dm^3 mol^−1 s^−1) from the slope of the line with the error from the standard deviation in the slope calculated in Prism 6.
# [5] = Chemical stability in the presence of cysteine by 1H NMR; conditions: for Itrans/(Icis + Itrans): 37° C.; for chemical stability (change by NMR) after 16 hours: D2O:DMSO-d6 10:1 v/v at 37° C.
# [6] = Spontaneous isomerization in D2O or D2O:DMSO-d6 without nucleophile by 1H NMR; conditions: D2O:DMSO-d6 (10:1 v/v), room temperature, no nucleophile
# [7] = Solubility in DMSO/water (D2O) mixtures; conditions: dilution with D2O from DMSO-d6 stock solution (D2O:DMSO-d6 10:1)
# Procedure: as §2
# The conjugates were tested in imaging experiments (FIG. 1). An advantage of the new trans cyclooctene derivatives lies in their improved solubility in DMSO/water mixtures. Bioorthogonal imaging experiments of PARP protein in HT1080 cells (expressing PARP1 fused to mCherry) were successful with all three new compounds, (FIG. 1). The imaging experiments were performed by treating HT1080 cells (expressing PARP1 fused to mCherry) with 5 μM compound 45 (a-d), 46 (e-h) and 47 (i-l) for 30 minutes. After washing with growth media three times for 5 minutes each, cells were incubated for 30 minutes with 1 μM of CFDA-Tz for bio-orthogonal reaction inside the live cells. Following fixation, 40× images were collected by deconvolution microscopy a, e, i) bright field images; b, f, j) Olaparib-TCO/Tz-CFDA staining; c, g, k) PARP1-mCherry, d, h, l) merged images (see FIG. 1). […]
# [8] = D2O:DMSO-d6 (10:1 v/v), room temperature, no nucleophile, t 1 h
# [9] = D2O:DMSO-d6 (10:1 v/v), room temperature, no nucleophile, t 7 h
# [10] = D2O:DMSO-d6 (10:1 v/v), room temperature, no nucleophile, t 14 h
smiles,measurement,setting,value
"COCCOCCOCCOC1CC/C=C/CCC1O (centres unmarked) [3PEGMe-TCO, (E)-8-(2-(2-(2-methoxyethoxy)ethoxy)ethoxy)cyclooct-4-enol]","chemical stability / isomerization, result in words",[1],did not show any degradation; also recorded: relatively stable
same,"isomerization or degradation on storage in D2O, result in words",[2],no isomerization or degradation
same,Icis,[3]; t 0 h,0.17
same,Itrans,[3]; t 0 h,2
same,Itrans/(Icis + Itrans),[3]; t 0 h,0.922
same,Icis,[3]; t 2 h,0.48
same,Itrans,[3]; t 2 h,2
same,Itrans/(Icis + Itrans),[3]; t 2 h,0.807
same,Icis,[3]; t 11 h,0.66
same,Itrans,[3]; t 11 h,2
same,Itrans/(Icis + Itrans),[3]; t 11 h,0.752
same,Icis,[3]; t 17 h,0.69
same,Itrans,[3]; t 17 h,2
same,Itrans/(Icis + Itrans),[3]; t 17 h,0.744
same,Icis,[3]; t 25 h,0.74
same,Itrans,[3]; t 25 h,2
same,Itrans/(Icis + Itrans),[3]; t 25 h,0.730
"OCCOC1/C=C/COCOC1 (centres unmarked) [DO-TCO, (E)-2-((5,8-dihydro-4H-1,3-dioxocin-5-yl)oxy)ethanol]","chemical stability / isomerization, result in words",[1],isomerization of the trans isomer to the cis isomer; also recorded: isomerization of the trans-isomer to the cis-isomer; also recorded: undergo isomerization/decomposition; also recorded: much faster than that of s-TCO
same,trans-isomer still present after 6 hours,[1],no trans-compound was present
same,Icis,[1]; t 0 h,0
same,Itrans,[1]; t 0 h,2
same,Icis,[1]; t 6 h,2
same,Itrans,[1]; t 6 h,0
same,Icis,[1]; t 14 h,2
same,Itrans,[1]; t 14 h,0
same,time the spontaneous isomerization to the cis isomer took,"[2]; D2O, 37° C.",~5 days
same,time after which a similar degree of isomerization (at least 5%) was observed,"[2]; D2O, room temperature",63 h
same,time the spontaneous isomerization to the cis isomer took,"[2]; D2O, room temperature",more than 12 days
same,"isomerization or degradation on storage in D2O, result in words",[2],slow isomerization to the cis isomer
same,Icis,[3]; t 0 h,0
same,Itrans,[3]; t 0 h,2
same,Itrans/(Icis + Itrans),[3]; t 0 h,1
same,Icis,[3]; t 2 h,0.18
same,Itrans,[3]; t 2 h,2
same,Itrans/(Icis + Itrans),[3]; t 2 h,0.917
same,Icis,[3]; t 11 h,0.38
same,Itrans,[3]; t 11 h,2
same,Itrans/(Icis + Itrans),[3]; t 11 h,0.840
same,Icis,[3]; t 17 h,0.42
same,Itrans,[3]; t 17 h,2
same,Itrans/(Icis + Itrans),[3]; t 17 h,0.826
same,Icis,[3]; t 25 h,0.79
same,Itrans,[3]; t 25 h,2
same,Itrans/(Icis + Itrans),[3]; t 25 h,0.717
same,k2 second rate constant,[4],332 ± 3 dm^3 · mol^−1 · s^−1
same,second order rate constant k2,[4],332±3 dm^3 mol^−1 s^−1
same,Itrans/(Icis + Itrans),[5]; t 0 h,1
same,Itrans/(Icis + Itrans),[5]; t 6 h,0
same,Itrans/(Icis + Itrans),[5]; t 14 h,0
"OCCOC1/C=C/CCCCC1 (centres unmarked) [EG-TCO, (E)-2-(cyclooct-2-en-1-yloxy)ethanol]","chemical stability / isomerization, result in words",[1],did not show any change; also recorded: relatively stable
same,"chemical stability / isomerization, result in words",[3],did not show any change; also recorded: relatively stable
same,chemical stability (change by NMR) after 16 hours,[3],did not show any change
same,k2 second rate constant,[4],600 ± 6 dm^3 · mol^−1 · s^−1
same,second order rate constant k2,[4],600±6 dm^3 mol^−1 s^−1
same,chemical stability (change by NMR) after 16 hours,[5],did not show any change
"O=C1OC2CC/C=C/CCC2N1CCOCCO (centres unmarked) [OX-TCO, (E)-3-(2-(2-hydroxyethoxy)ethyl)-3,3a,4,5,9,9a-hexahydrocycloocta[d]oxazol-2(8H)-one]","chemical stability / isomerization, result in words",[1],did not show any change; also recorded: relatively stable
same,"isomerization or degradation on storage in D2O, result in words",[2],no isomerization or degradation
same,"chemical stability / isomerization, result in words",[3],did not show any change; also recorded: relatively stable
same,chemical stability (change by NMR) after 16 hours,[3],did not show any change
same,weighted average second order rate constant k2,"[4]; 4:1 isomer mixture, benzylamino tetrazine in PBS at 37° C.",29242±636 dm^3 mol^−1 s^−1
same,k2 second rate constant,[4],29242 ± 636 dm^3 · mol^−1 · s^−1
same,chemical stability (change by NMR) after 16 hours,[5],did not show any change
"OC1CC/C=C/CCC1 (stereo not drawn) [TCO-OH, trans-cyclooctenol, reference compound]","chemical stability / isomerization, result in words",[1],did not show any change; also recorded: relatively stable
same,"isomerization or degradation on storage in D2O, result in words",[2],no isomerization or degradation
same,"chemical stability / isomerization, result in words",[3],did not show any change; also recorded: relatively stable
same,"chemical stability / isomerization, result in words",[3]; listed as TCO,isomerized very fast
same,chemical stability (change by NMR) after 16 hours,[3],did not show any change
same,k2 second rate constant,[4],33585 ± 326 dm^3 · mol^−1 · s^−1
same,chemical stability (change by NMR) after 16 hours,[5],did not show any change
"OCC1C2CCC=CCCC12 (centres unmarked) [s-TCO, reference compound]","chemical stability / isomerization, result in words",[1],isomerization of the trans isomer to the cis isomer; also recorded: isomerization of the trans-isomer to the cis-isomer; also recorded: undergo isomerization/decomposition
same,trans-isomer still present after 6 hours,[1],65%
same,Icis,[1]; t 0 h,0.19
same,Itrans,[1]; t 0 h,2
same,Icis,[1]; t 6 h,1.07
same,Itrans,[1]; t 6 h,2
same,Icis,[1]; t 14 h,8.42
same,Itrans,[1]; t 14 h,2
same,isomerization after 14 hours,"[2]; D2O:DMSO-d6 10:1, room temperature, 14 hours",at least 5%
same,Itrans/(Icis + Itrans),"[2]; D2O:DMSO-d6 (10:1 v/v), room temperature, no nucleophile, t 0 h",1
same,Icis,[2]; [8],0.03
same,Itrans,[2]; [8],2
same,Icis,[2]; [9],0.06
same,Itrans,[2]; [9],2
same,Icis,[2]; [10],0.1
same,Itrans,[2]; [10],2
same,Icis,[6]; t 0 h,0
same,Itrans,[6]; t 0 h,2
same,Itrans/(Icis + Itrans),[6]; t 1 h,0.985
same,Itrans/(Icis + Itrans),[6]; t 7 h,0.971
same,Itrans/(Icis + Itrans),[6]; t 14 h,0.952
same,"chemical stability / isomerization, result in words",[3],isomerization of the trans isomer to the cis isomer; also recorded: occurred together with unidentified side reactions; also recorded: undergo isomerization/decomposition; also recorded: most of the s-TCO disappeared within the first two hours
same,Icis,[3]; t 0 h,1.19
same,Itrans,[3]; t 0 h,2
same,Itrans/(Icis + Itrans),[3]; t 0 h,0.627
same,Icis,[3]; t 2 h,87
same,Itrans,[3]; t 2 h,2
same,Itrans/(Icis + Itrans),[3]; t 2 h,0.023
same,Icis,[3]; t 11 h,2
same,Itrans,[3]; t 11 h,0
same,Itrans/(Icis + Itrans),[3]; t 11 h,0
same,Icis,[3]; t 17 h,2
same,Itrans,[3]; t 17 h,0
same,Itrans/(Icis + Itrans),[3]; t 17 h,0
same,Icis,[3]; t 25 h,2
same,Itrans,[3]; t 25 h,0
same,Itrans/(Icis + Itrans),[3]; t 25 h,0
same,Itrans/(Icis + Itrans),[5]; t 0 h,0.913
same,Itrans/(Icis + Itrans),[5]; t 6 h,0.652
same,Itrans/(Icis + Itrans),[5]; t 14 h,0.192
same,concentration preparable without precipitation,[7],< 20000 µM
